Measured values reported in paper PMC6331789, “Phytochemicals from Ruta graveolens Activate TAS2R Bitter Taste Receptors and TRP Channels Involved in Gustation and Nociception” (Molecules, 2015).
Where two headings read alike, the source gives them in different places.

Legend:
Format in all cases: cell-based
TRPM8 = molecular target: T1, TRPM8 (Homo sapiens, UniProt Q7Z2W7); test: In vitro Fluo8-NW calcium assay (FLIPR) on HEK293T cells stably overexpressing TRPM8; details: for TRPM8 screening result: single dose, qualitative
T1 construct: expressed in transfected cells
Description: (§1) Pure phytochemicals were submitted to in vitro assays with a platform of twenty cloned receptors of the bitter taste TAS2R family and four receptors of the TRP family related to the perception of taste and somatosensory sensations. All experiments have been repeated three times, each time with four replicates. […] For simplicity, only those bitter taste receptors having reproducible positive assay, namely TASR10, 14 and 49, are reported (Table 1).
(§2) For those compounds showing activity on one or more receptor(s), the concentration/response curves were plotted and the EC50 calculated.
(§3) For the biological tests, several compounds were purchased as references from different suppliers (Sigma Aldrich, ChromaDex, Irvine, CA, USA, and Tocris Bioscience, Bristol, UK) and dissolved in assay buffer (130 mM NaCl, 5 mM KCl, 1 mM MgCl2, 2 mM CaCl2, 5 mM NaHCO3 and 20 mM HEPES, pH 7.4) or in a mixture of assay buffer and DMSO, never exceeding a final DMSO concentration of 0.5% (v/v) to avoid toxic effects and possible artefacts on transfected cells.
(§4) All human TAS2R and G15Gi1 cDNAs were produced as reported in Bassoli et al. cDNAs for human TRPA1-M5-M8-V1-V4 were cloned into a pcDNA6 expression vector (Invitrogen-Thermo Fisher, Waltham, MA, USA).
(§5) All experiments were performed using HEK293T cells (ATCC).
(§6) For TRP platform experiments, cells were cultured in MEM/EBSS medium (ECB2071L EuroClone, Milan, Italy) plus 10% (v/v) fetal bovine serum (FBS) (26400-044 Gibco, Karlsruhe, Germany) and 1% (v/v) Pen/Strep 10K/10K stock (17-602E Lonza, Basel, Switzerland). Stable cell lines were generated overexpressing each TRP channel, and clones were selected with 500 µg/mL of G418 (ant-gn-5 Invivogen, Karlsruhe, Germany). To analyze TRP receptor responses, cells were plated at a concentration of 20,000 cells/well in 384-well plates (GR-4330 Twin Helix srl, Milan, Italy). Cellular responses were measured 24 h after seeding.
For TRPA1-M8-V1-V4 experiments, a solution of Fluo8-NW calcium-sensitive dye (36316 AAT BioQuest, Sunnyvale, CA, USA) was prepared using the assaybuffer and diluting the kit components 1:2 according to the manufacturer’s instructions. Twenty-four hours after seeding, cells were incubated one hour at RT, loaded with 40 µL of Fluo8-NW solution for each well and incubated again for one hour at RT before data acquisition.
(§7) For TRPM5 experiments, cells were loaded 24 h after seeding with a Membrane Potential Dye (R8034 MDC) solution in assay buffer according to the manufacturer’s instructions and incubated at 37 °C for 1 h before acquisition. All experiments were performed using a fluorometric imaging plate reader (FLIPR^TETRA, Molecular Devices equipped with ICCD Camera from Stanford Photonics, INC, (Palo Alto, CA, USA) and kinetics were visualized with Molecular Devices’ Screenworks 3.0 (Sunnyvale, CA, USA).
(§8) For the calculation of concentration-response curves, responses were calculated as the difference between maximal and minimal relative fluorescence unit (RFU) values in a selected time window (11–60 s) and were normalized to the basal well fluorescence (Time Point 1, before compound injection) in order to compensate for differences in cell density (∆F/F0). All of the experiments have been repeated three times, each time with four replicates. All of the results are averages of at least four replicates. Raw data are available in Supplementary Material, Figures S3–S6.

TRPM5 = molecular target: T2, TRPM5 (Homo sapiens, UniProt Q9NZQ8); test: In vitro membrane potential dye assay (FLIPR) on HEK293T cells stably overexpressing TRPM5; details: for TRPM5 screening result: single dose, qualitative
T2 construct: expressed in transfected cells
T2 sequence (Q9NZQ8 1-1165): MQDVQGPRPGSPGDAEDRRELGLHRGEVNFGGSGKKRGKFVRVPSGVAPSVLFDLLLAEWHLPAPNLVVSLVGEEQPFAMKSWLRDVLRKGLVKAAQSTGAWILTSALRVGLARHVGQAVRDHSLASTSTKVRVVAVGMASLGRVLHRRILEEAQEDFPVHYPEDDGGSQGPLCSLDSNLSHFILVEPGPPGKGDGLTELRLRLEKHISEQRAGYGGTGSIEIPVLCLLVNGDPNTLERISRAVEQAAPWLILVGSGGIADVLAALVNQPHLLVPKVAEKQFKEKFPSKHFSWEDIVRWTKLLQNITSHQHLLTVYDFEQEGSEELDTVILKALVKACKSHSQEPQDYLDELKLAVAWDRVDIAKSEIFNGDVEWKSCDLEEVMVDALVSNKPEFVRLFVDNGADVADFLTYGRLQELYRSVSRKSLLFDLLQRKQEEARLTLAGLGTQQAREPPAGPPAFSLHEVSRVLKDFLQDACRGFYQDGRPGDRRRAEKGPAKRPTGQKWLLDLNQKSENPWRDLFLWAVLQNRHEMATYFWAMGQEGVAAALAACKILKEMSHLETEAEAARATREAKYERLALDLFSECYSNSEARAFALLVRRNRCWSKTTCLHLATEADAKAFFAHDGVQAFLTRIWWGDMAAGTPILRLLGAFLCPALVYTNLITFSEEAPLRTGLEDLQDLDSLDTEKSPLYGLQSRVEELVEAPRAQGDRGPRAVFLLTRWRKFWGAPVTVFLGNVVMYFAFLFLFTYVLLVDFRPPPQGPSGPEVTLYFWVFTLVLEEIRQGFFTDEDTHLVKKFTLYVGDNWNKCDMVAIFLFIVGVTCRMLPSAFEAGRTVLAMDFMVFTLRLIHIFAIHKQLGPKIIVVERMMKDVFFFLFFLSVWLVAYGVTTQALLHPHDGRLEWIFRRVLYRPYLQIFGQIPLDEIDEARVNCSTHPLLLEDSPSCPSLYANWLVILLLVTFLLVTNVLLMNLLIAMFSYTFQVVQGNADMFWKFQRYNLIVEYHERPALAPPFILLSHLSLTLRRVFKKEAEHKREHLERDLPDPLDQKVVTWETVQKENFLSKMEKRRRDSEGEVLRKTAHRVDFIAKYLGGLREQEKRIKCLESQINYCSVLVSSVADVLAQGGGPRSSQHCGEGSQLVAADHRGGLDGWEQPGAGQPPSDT
Description: as §1, §2, §3, §4, §5, §6, §7, §8

TAS2R14 = molecular target: T3, TAS2R14 (Homo sapiens, UniProt Q9NYV8); test: In vitro calcium imaging assay on cloned TAS2R14 in transfected HEK293T cells; details: for TAS2R14 screening result: single dose, qualitative
T3 construct: expressed in transfected cells; host or cells: HEK293T
T3 sequence (Q9NYV8 1-317): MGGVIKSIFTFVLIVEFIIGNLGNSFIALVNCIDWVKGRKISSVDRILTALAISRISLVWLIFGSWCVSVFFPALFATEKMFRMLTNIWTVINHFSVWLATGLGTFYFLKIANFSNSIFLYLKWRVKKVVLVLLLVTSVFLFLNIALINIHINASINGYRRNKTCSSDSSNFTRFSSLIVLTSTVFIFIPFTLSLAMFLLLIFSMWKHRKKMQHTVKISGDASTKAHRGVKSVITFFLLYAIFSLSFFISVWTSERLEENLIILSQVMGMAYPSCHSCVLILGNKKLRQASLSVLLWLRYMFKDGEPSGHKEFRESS
Description: as §1, §2, §3, §4, §5
For the bitter platform experiments, cells were cultured, transfected and analyzed as previously described.
For the bitter platform experiments, data analyses were performed as previously described.
as §8

[1] = concentration/response curve, values with ≥ estimated, curve did not saturate, read-out: EC50 TAS2R14

T1 sequence (Q7Z2W7 whole entry): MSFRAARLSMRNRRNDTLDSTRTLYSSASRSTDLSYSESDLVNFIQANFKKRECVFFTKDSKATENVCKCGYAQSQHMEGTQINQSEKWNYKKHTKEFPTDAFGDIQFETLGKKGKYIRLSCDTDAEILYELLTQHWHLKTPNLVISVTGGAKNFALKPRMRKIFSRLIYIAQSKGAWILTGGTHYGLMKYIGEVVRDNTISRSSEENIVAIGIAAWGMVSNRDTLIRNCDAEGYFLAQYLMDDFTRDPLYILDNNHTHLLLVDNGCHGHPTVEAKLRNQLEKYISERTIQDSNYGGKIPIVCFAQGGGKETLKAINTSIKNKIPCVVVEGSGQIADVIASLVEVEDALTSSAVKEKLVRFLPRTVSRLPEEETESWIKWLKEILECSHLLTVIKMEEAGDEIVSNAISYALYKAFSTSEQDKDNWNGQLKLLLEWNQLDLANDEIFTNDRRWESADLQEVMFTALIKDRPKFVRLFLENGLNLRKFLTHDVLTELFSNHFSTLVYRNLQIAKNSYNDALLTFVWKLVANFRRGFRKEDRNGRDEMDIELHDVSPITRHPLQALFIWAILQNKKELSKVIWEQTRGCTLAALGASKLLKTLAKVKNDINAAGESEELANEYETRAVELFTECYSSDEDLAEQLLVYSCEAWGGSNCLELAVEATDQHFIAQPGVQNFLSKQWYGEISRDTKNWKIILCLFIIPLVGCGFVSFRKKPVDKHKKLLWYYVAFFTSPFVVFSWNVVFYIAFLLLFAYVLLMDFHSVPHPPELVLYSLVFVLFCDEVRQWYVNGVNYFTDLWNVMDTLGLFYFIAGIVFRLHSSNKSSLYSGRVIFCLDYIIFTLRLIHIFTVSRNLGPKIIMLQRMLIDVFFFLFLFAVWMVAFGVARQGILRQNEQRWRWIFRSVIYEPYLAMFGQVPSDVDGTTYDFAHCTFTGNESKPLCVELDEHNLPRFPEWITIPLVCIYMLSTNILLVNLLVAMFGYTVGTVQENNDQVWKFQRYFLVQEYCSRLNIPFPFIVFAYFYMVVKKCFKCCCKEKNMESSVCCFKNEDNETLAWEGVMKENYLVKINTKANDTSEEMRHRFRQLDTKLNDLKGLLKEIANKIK

Row | SMILES | TRPM8 screening result (TRPM8) | TRPM5 screening result (TRPM5) | Activity on TAS2R14 (in words) (TAS2R14) | TAS2R14 screening result (TAS2R14) | Activity on TRPM8 (in words) (TRPM8) | Activity on TRPM5 (in words) (TRPM5) | EC50 (TRPM5; concentration/response curve, values with ≥ estimated) [µM] | EC50 (TAS2R14; [1]) [µM] | EC50 (TAS2R14) [µM]
1 | COc1c2ccoc2cc2oc(=O)ccc12 [Compound 3, bergapten] | − | − | inactive | − |  |  |  |  | 
2 | C=CC(C)(C)c1cc2cc3c(cc2oc1=O)OC(C(C)(C)OC(C)=O)C3 (centres unmarked) [Compound 2, rutamarin] |  | + |  | − | strong antagonist | activated | ≥ 26.7 |  | 
3 | COc1cc2nc3occc3c(OC)c2cc1OC [Compound 7, kokusaginin] | − | − |  | − |  |  |  |  | 
4 | COc1ccc2c(OC)c3ccoc3nc2c1OC [Compound 8, skimmianine] | − | − | selectively activate | + |  |  |  | ≥ 15.8 | 
5 | COc1c2occc2cc2ccc(=O)oc12 [Compound 4, xanthotoxin] | − | − |  | + |  |  |  |  | ≥ 10.8
6 | CCCCCCCCCC(C)=O [Compound 9, 2-undecanone] | − | − |  | − |  |  |  |  | 
7 | C[C@@H]1O[C@@H](OC[C@H]2O[C@@H](Oc3c(-c4ccc(O)c(O)c4)oc4cc(O)cc(O)c4c3=O)[C@H](O)[C@@H](O)[C@@H]2O)[C@H](O)[C@H](O)[C@H]1O [Compound 1, rutin] | − | − |  | − |  |  |  |  | 
8 | CCCCCCCC(C)=O [Compound 10, 2-nonanone] | − | − |  | − |  |  |  |  | 
9 | COc1c2ccoc2c(OC)c2oc(=O)ccc12 [Compound 5, isopimpinellin] | − | − | responded | + |  |  |  | 11.1 | 
